In one data set the test system is ceramide kinase. The data set can be described thus: Ceramide kinase assay on lysates of treated or transfected A549 cells. Type of data set: cell-based, human. As for the experimental part:
(§1) FIGS. 5A-5C. IL-1β and calcium ionophore increase ceramide-1-phosphate production and ceramide kinase activity. FIGS. 5A and 5B. The effect of IL-1 and A23187 on C-1-P levels and AA liberation. A549 cells (2×10^5) were labeled overnight with 10 μCi/mL [^3H]-arachidonic acid (10 nM), washed, and then treated with either 2.5 ng/mL of IL-1β (FIG. 5A) or 1 μg/mL of A23187 (FIG. 5B) for the indicated times. Two hours prior to Bligh-Dyer extraction, cells were chased with 20 μM of D-e-C6 NBD-ceramide (Matreya). At the appropriate times, media was taken for AA analysis, and lipids from the cells were extracted by the Bligh-Dyer method followed by analysis of NBD-C-1-P formation. Data are presented as % control of C-1-P levels (J) and AA release (B). Data are representative of three separate determinations on 2 separate occasions. FIG. 5C. IL-1β and calcium ionophore increase ceramide kinase activity. A549 cells (5×10^5) were treated with either 2.5 ng/mL of IL-1β for 3.5 hours or 1 μg/mL of A23187 for 5 minutes. Cells were then washed, lysed in assay buffer, and assayed for ceramide kinase activity. Data is presented as % control of ceramide kinase activity (Arbitrary densitometry units of fluorescent NBD-C-1-P produced/min/mg of total cellular protein). Data are representative of three separate determinations on 2 separate occasions.
FIGS. 6A-6B. Ceramide kinase RNAi downregulates endogenous ceramide kinase activity and mRNA levels. FIG. 6A. The effect of ceramide kinase RNAi on endogenous ceramide kinase activity. […] Following the same procedure as outlined in FIG. 6A, total RNA was extracted and analyzed via logarithmic reverse-transcriptase polymerase chain reaction for human ceramide kinase and 18s ribosomal RNA. […]
Ceramide Kinase Assay: Ceramide kinase activity was measured as described previously with slight modifications (Bajjalieh, S., and Batchelor, R. (2001) Methods Enzymol. 311, 207-215). […] Following Bligh-Dyer extraction, lipids were separated by thin layer chromatography, and NBD-C-1-P was visualized/quantified by fluorescent phosphorimaging.

In data set [1] the test system is A549 cells. The data set can be described thus: Quantification of arachidonic acid (AA) release in A549 cells. Type of data set: cell-based. The conditions noted are these: for AA release (lipid specificity): 1 μM lipid, 2 hours. As for the experimental part:
(§2) Cell Culture: A549 lung adenocarcinoma cells (epithelial-derived) were grown in low glucose DMEM (Invitrogen) supplemented with L-glutamine, 10% (v/v) fetal bovine serum (Invitrogen), 200 U/ml of penicillin G sodium, and 200 μg/ml of streptomycin sulfate. Cells were maintained under 80% confluency and standard incubator conditions (humidified atmosphere, 95% air, 5% CO2, 370 C). For treatment, cells were incubated for 2 hours in low glucose DMEM (Invitrogen) supplemented with L-glutamine, 2% (v/v) fetal bovine serum (Invitrogen), 200 U/ml of penicillin G sodium, and 200 μg/ml of streptomycin sulfate prior to the addition of agonist.
Quantification of arachidonic acid (AA) release: A549 cells (5×10^4) were labeled overnight with 5 μCi/mL [^3H]-AA (5 nM) (NEN). Cells were washed and incubated in DMEM supplemented with 2% fetal bovine serum for 2 hours. Following treatment, media was transferred to 1.5 mL polypropylene tubes, centrifuged at 10,000×g, and ^3H-AA cpm determined by scintillation counting. Results were controlled for equivalent number of cells quantified by MTT assay as described (Chalfant, C. E., Rathman, K., Pinkerman, R. L., Wood, R. E., Obeid, L. M., Ogretmen, B., and Hannun, Y. A. (2002) J. Biol. Chem. 277, 12587-12595) and by verification of total AA labeling by scintillation counting. For the experiments in FIG. 4, purified SMase D was obtained from Dr. Alfred H. Merrill, Jr., and SMase C (purified from Bacillus cereus) was obtained commercially from Sigma.
RNAi design and transfections: Knock-downs of ceramide kinase were performed essentially as described using sequence specific siRNA reagents (http:www.mpibpc.gwdg.de/abteilungen/100/105/sirna.html) (Lassus, P., Opitz-Araya, X., and Lazebnik, Y. (2002) Science 297, 1352-1354) using human ceramide kinase RNAi starting 142 nucleotides from start codon ([…]dTd (SEQ ID NO: 3) and […]dTd (SEQ ID NO:4)). All sequences were evaluated against the database using the NIH blast program to test for specificity (Xeragon, A Qiagen Company). A549 cells (3×10^4) were transfected with the 21-nucleotide duplexes using OligofectAMINE (Invitrogen) as recommended by the manufacturer. Following the 4 hour transfection, cells were treated and assayed for AA release or PGE2 synthesis at 26 hours post-transfection.

The subject of the next data set is C-1-P levels. The data set can be described thus: Ceramide-1-phosphate levels by pulse-labeling with D-e-C6 NBD-ceramide in A549 cells. Type of data set: cell-based. The protocol:
as §1
Quantification of ceramide-1-phosphate levels by pulse-labeling with D-e-C6 NBD-ceramide: Two hours prior to Bligh-Dyer extraction, cells were chased with 20 μM of D-e-C6 NBD-ceramide (Matreya). At the appropriate times, lipids were extracted by the Bligh-Dyer method, analyzed for NBD-C-1-P formation using TLC analysis, and results normalized to total lipid phosphate as described (Perry, D. K., Bielawska, A., and Hannun, Y. A. (2000) Methods Enzymol. 312, 22-31).

In the next data set the target is protein phosphatase-1. The data set can be described thus: Inhibition of protein phosphatase-1. It counts as biochemical.
Another data set has as its system COX-2. As to the kind of experiment: COX-2 expression by western immunoblotting. It counts as cell-based.
The next data set deals with protein phosphatase 2A. As to the kind of experiment: Inhibition of protein phosphatase 2A. Type of data set: biochemical.
Data set [2] relates to A549 cells. As to the kind of experiment: Quantification of thromboxane B2 synthesis in A549 cells (EIA). Type of data set: cell-based. The conditions noted are these: 1 μM. As for the experimental part: (§3) FIGS. 3A-3B. FIG. 3A. The effects of ceramide-1-phosphate on TXB2 synthesis. A549 cells (1×10^5) were treated with D-e-C16 ceramide-1-phosphate (1 μM) solubilized in 2% dodecane/98% ethanol (final concentration in treatments was 0.002% dodecane/0.098% ethanol (EtOH)) for the indicated times. The results are presented as % control of TXB2 controlled for equivalent number of cells by MTT assay. Data are representative of 3 separate determinations on 2 separate occasions. FIG. 3B. The effects of ceramide-1-phosphate on AA release and PGE2 synthesis in L929 fibroblasts. L929 cells (5×10^4) were labeled overnight with 5 μCi/mL [^3H]-arachidonic acid (5 nM). Cells were washed and placed in DMEM supplemented with 2% fetal bovine serum for two hours. Cells were then treated with 2.5 μM D-e-C16 ceramide-1-phosphate (solubilized in 98% ethanol/2% dodecane) for the indicated times. […]
(§4) Quantification of prostaglandin E2 and thromboxane B2 synthesis: For measurement of PGE2 and TXB2 levels, aliquots of media were taken at indicated time points and assayed according to manufacturer's instructions using the prostaglandin E2 and thromboxane B2 monoclonal EIA Kit from Cayman Chemical. […] Results were controlled for equivalent number of cells quantified by MTT assay.

Data set [3] has as its system L929 fibroblasts. As to the kind of experiment: PGE2 synthesis in L929 fibroblasts. Type of data set: cell-based. The conditions noted are these: L929 fibroblasts that do not express COX-2. The protocol: as §3, §4
Data set [4] concerns A549 cells. As to the kind of experiment: Quantification of prostaglandin E2 synthesis in A549 cells (EIA). Type of data set: cell-based. The conditions noted are these: 2.5 μM, only after 1 hour. As for the experimental part:
as §2
Quantification of prostaglandin E2 and thromboxane B2 synthesis: For measurement of PGE2 and TXB2 levels, aliquots of media were taken at indicated time points and assayed according to manufacturer's instructions using the prostaglandin E2 and thromboxane B2 monoclonal EIA Kit from Cayman Chemical. Briefly, media containing PGE2 or TXB2 competes with PGE2 or TXB2 acetylcholinesterase conjugate for a limited amount of monoclonal antibody. The antibody-PGE2 or -TXB2 conjugate binds to a goat-anti-mouse antibody previously attached to the 96-well plate. The plate is washed to remove unbound reagents and then the substrate for acetylcholinesterase is provided. […] Results were controlled for equivalent number of cells quantified by MTT assay. […]

Data set [5] deals with L929 fibroblasts. As to the kind of experiment: AA release in L929 fibroblasts. The conditions noted are these: 1 μM, after 1 hour. It counts as cell-based. The protocol:
as §3, with “hours.” for “hours. Cells were then treated with 2.5 μM D-e-C16 ceramide-1-phosphate (solubilized in 98% ethanol/2% dodecane) for the indicated times.”
Quantification of arachidonic acid (AA) release: A549 cells (5×10^4) were labeled overnight with 5 μCi/mL [^3H]-AA (5 nM) (NEN). […] Following treatment, media was transferred to 1.5 mL polypropylene tubes, centrifuged at 10,000×g, and ^3H-AA cpm determined by scintillation counting. Results were controlled for equivalent number of cells quantified by MTT assay as described (Chalfant, C. E., Rathman, K., Pinkerman, R. L., Wood, R. E., Obeid, L. M., Ogretmen, B., and Hannun, Y. A. (2002) J. Biol. Chem. 277, 12587-12595) and by verification of total AA labeling by scintillation counting. […]

On to `CNc1ccc2oc(C[C@H]3O[C@@]4(CC[C@H]3C)O[C@H]([C@H](C)C(=O)c3ccc[nH]3)[C@H](C)C[C@H]4C)nc2c1C(=O)O` [A23187], for which the “increase of ceramide kinase activity” value in the data set on ceramide kinase (1 μg/mL, 5 minutes) worked out at 216%. Besides, in the data set with A549 cells [1] (1 μg/mL), the “time to increased AA release” value is “within minutes”. Further, in the data set with C-1-P levels (1 μg/mL, after 10 minutes), the “maximal increase in C-1-P levels” value is listed as “approximately 4 fold”. The C-1-P levels result with C-1-P levels (1 μg/mL, within 5 minutes of treatment) is recorded as “significant increase”.

For the compound `CCCCCCCCCCCCC/C=C/[C@@H](O)[C@H](COP(=O)(O)O)NC(=O)CCCCCCCCCCCCCCC` [C-1-P, D-erythro-C16 ceramide-1-phosphate], the IC50 on protein phosphatase-1 and against protein phosphatase 2A was 50 nM throughout. The “expression of COX-2” value in the data set on COX-2 was “no effect”. For the same compound, the “concentration as low as which induces a significant increase in AA release” value with A549 cells [1] worked out at 100 nM. In addition, the “AA release (lipid specificity)” value in the data set with A549 cells [1] is reported as “induced significant AA release”. The “maximal early increase in AA release” value with A549 cells [1] (2.5 μM, after 20 minutes) was “approximately 2 fold”. In addition, in the data set on A549 cells [1] (2.5 μM, after 1 hour, following reuptake), the AA release entry is given as “sustained increase”. Moreover, the half-maximal effective concentration (EC50) in the data set on A549 cells [1] (8 hours, read-out: EC50 of effect on AA release) turned out to be 400 nM. The “increase of TXB2” value amounted to 2.5 fold with A549 cells [2] (after 2 hours) and 11 fold in the data set on A549 cells [2] (after 4 hours). The PGE2 synthesis/release result with L929 fibroblasts [3] is listed as “not observed”. In addition, in the data set on A549 cells [4], the PGE2 synthesis entry is given as “Increased”. In addition, the “AA release over basal release” value in the data set on L929 fibroblasts [5] stood at 225%.

Regarding `CCCCCCCCCCCCC/C=C/[C@@H](O)[C@H](CO)NC(=O)CCCCCCCCCCCCCCC` [CER, D-erythro C16 ceramide], the “AA release (lipid specificity)” value in the data set with A549 cells [1] is “small increase”. The “AA release, long term treatment” value in the data set on A549 cells [1] (8 hours) is recorded as “no further increase”.

With `CCCCCCCC/C=C\CCCCCCCC(=O)OC[C@H](COP(=O)(O)O)OC(=O)CCCCCCC/C=C\CCCCCCCC` [PA, di-oleoyl phosphatidic acid], in the data set with A549 cells [1], the “AA release (lipid specificity)” value is “Only C-1-P induced significant AA release”.

Consider `CCCCCCCCCCCCC/C=C/[C@@H](O)[C@@H](N)COP(=O)(O)O` [S-1-P, D-erytho-sphingosine-1-phosphate], for which the “AA release (lipid specificity)” value with A549 cells [1] is recorded as “Only C-1-P induced significant AA release”.

Regarding IL-1β, the “increase of ceramide kinase activity” value in the data set on ceramide kinase (2.5 ng/mL, 3.5 hours) was determined as 187%. Also, in the data set with C-1-P levels (2.5 ng/mL, after 4 hours), the “increase in C-1-P levels” value stood at 242%.

Consider di-oleoylglycerol [DAG], for which the “AA release (lipid specificity)” value with A549 cells [1] is “Only C-1-P induced significant AA release”.

Broadly, the IC50 is the concentration at which inhibition is half-maximal. Higher therefore signals weaker potency. By EC50 is commonly meant the concentration at which the effect is half-maximal.

Values taken from US20060030537A1, “Ceramide kinase and uses thereof” (priority 2004, published 2006).
